Test results reported in patent US20240307390A1, “METHODS AND COMPOSITIONS FOR CANCER TREATMENT BY TARGETING AXL SIGNALING” (Sanford Burnham Prebys Medical Discovery Institute, priority 2023, published 2024).

Legend:
GAS6 in MDA-MB-231 cells = assay: GAS6 expression and protein in MDA-MB-231 cells; type: cell-based, human
Excerpt: (§1) FIGS. 4E and 4F represent ChIP analysis of Flag-EYA2 (FIG. 4E) and Flag-SIX1 (FIG. 4F) binding Gas6 promoter in MDA-MB-231 cells transfected with the indicated siRNAs. FIGS. 4G-4I show GAS6 expression in MCF7 cells transfected with indicated vectors (FIG. 4G) and MDA-MB-231 cells expressing indicated shRNAs (FIG. 4H) or treated with vehicle or EYA2i (FIG. 4I). FIGS. 4J and 4K show immunoblots of AXL signaling proteins in MDA-MB-231 cells transfected with control or FBXO7 siRNA (FIG. 4J) or treated with vehicle or EYA2i (FIG. 4K).
To determine how the FBXO7/EYA2-SCFFBXW7 axis maintains mesenchymal and immune evasion phenotypes of cancer cells, chromatin IP sequencing (ChIP-seq) profiles of EYA2 binding in control and FBXO7 KD cells (FIGS. 4A and 4B) were compared. FBXO7 KD decreased EYA2 binding at various genomic regions, including promoters, exons, and introns (data not shown). […] GAS6 was chosen for further analysis because of the link between AXL and mesenchymal phenotypes in TNBC cells. ChIP confirmed that EYA2 and SIX1 bound the Gas6 promoter and binding was diminished by KD of FBXO7 or co-transcriptional counterpart (FIGS. 4E and 4F). EYA2-2A also bound the Gas6 promoter (data not shown), indicating independence of CPD phosphorylation. Further, FBXO7 bound the Gas6 promoter and FBXO7 or ΔF-FBXO7 expression stimulated EYA2 binding (data not shown). […]

AXL signaling = assay: Immunoblots of AXL signaling proteins in MDA-MB-231 cells; type: cell-based, human; conditions: FIG. 4K
Excerpt: as §1
In line with the role of GAS6 as an AXL ligand, FBXO7 KD decreased total AXL and phospho-AXLTyr702 and decreased AXL surface expression (FIGS. 4J and 4M), indicating inhibition of AXL signaling. […] GAS6 expression rescued the decreased total and phospho-AXLTyr702 in FBXO7 KD cells (FIG. 4L). Consistent with a role of SCFFBXW7 in antagonizing FBXO7 functions, FBXW7 KD rescued the decreased GAS6 and attenuated AXL signaling in FBXO7 KD cells (data not shown). […] Expression of proinflammatory cytokine suppressor and AXL signaling effector SOCS1 partially rescued the increased IFNα/β, CXCL9/10, and HLA-A/B induced by FBXO7 KD (FIG. 4O). Further, GAS6 expression rescued the increased HLA-A/B/C surface expression on FBXO7 KD cells (data not shown).

[1] = system: mesenchymal and immune-stimulatory genes, cell morphology; assay: Gene expression and cell morphology after EYA2 Tyr phosphatase inhibitor treatment; type: cell-based; conditions: similar to EYA2 KD (flat, cuboidal morphology, decreased mesenchymal, induced immune-stimulatory genes); data not shown
Excerpt: EYA2 KD induced a flat, cuboidal morphology, decreased mesenchymal gene expression, and induced immune-stimulatory genes (FIGS. 2G-2I), phenocopying FBXO7 KD. […] Expression of WT EYA2, but not Tyr phosphatase mutant EYA2D274N or SIX binding mutant EYA2A532R, largely rescued the decreased mesenchymal and increased immune-stimulatory genes in FBXO7 KD cells (data not shown).

[2] = system: MDA-MB-231-luc breast tumors; assay: Orthotopic MDA-MB-231-luc breast tumors in immunocompromised mice; type: in vivo; conditions: partially rescued by GAS6 expression
Excerpt: (§2) FIGS. 6A and 6B show growth curves (FIG. 6A) and images (FIG. 6B) of control, FBXO7 KD, and FBXO7 KD+GAS6 MDA-MB-231 breast tumors in immunocompromised mice. […] FIGS. 6E and 6F show growth curves (FIG. 6E) and images (FIG. 6F) of control and GAS6-expressing MDA-MB-231-luc breast tumors in immunocompromised mice treated with vehicle or EYA2i.

4T1-luc breast tumors = assay: 4T1-luc TNBC tumors in syngeneic immunocompetent mice; type: in vivo
Procedure: as §2
Immunocompetent mice bearing 4T1-luc TNBCs were treated with vehicle or EYA2i and isotype IgG (control) or anti-PD-1 antibody (FIG. 6H).

cancer cells = assay: Cancer cell viability upon doxorubicin treatment; type: cell-based; conditions: partially rescued by GAS6 expression, FIG. 5H
Excerpt: FIGS. 5A and 5B show a gap closure assay of control, FBXO7 KD, and FBXO7 KD+GAS6 MDA-MB-231 (FIG. 5A) and BT-549 (FIG. 5B) cells. FIGS. 5C and 5D show the migration (FIG. 5C) and invasion (FIG. 5D) of indicated control, FBXO7 KD, and FBXO7 KD+GAS6 cells. […] FIGS. 5G and 5H show viabilities of indicated control, FBXO7 KD, or FBXO7 KD+GAS6 (FIG. 5G) or vehicle or EYA2i treated (FIG. 5H) cells upon doxorubicin treatment.
FBXO7 KD diminished mesenchymal cancer cell migration and invasion in in vitro assays (data not shown). These FBXO7 KD effects were largely rescued by GAS6 expression (FIGS. 5A-5D). […] Again, these phenotypes were largely rescued by GAS6 expression (FIGS. 5E and 5F). […] Consistent with an antagonistic role of SCFFBXW7, FBXW7 KD partially rescued the reduced migration of FBXO7 KD cells and enhanced EYA2i sensitivity (data not shown).

FBXO7-EYA2 binding = assay: Co-IP of FBXO7-EYA2 binding in treated cells; type: cell-based; conditions: treatment of cells; data not shown
Procedure: To gain insight into how FBXO7 maintains mesenchymal phenotypes and immune evasion of cancer cells, protein mass spectrometry was conducted to identify putative interacting proteins (FIG. 2A). Eyes Absent Homolog 2 (EYA2), a co-activator of the SIX family of homeobox transcription factors with Tyr phosphatase activity, was one of the most abundant FBXO7-interacting proteins (FIG. 2B). Immunoprecipitation (IP) and in vitro pull-down assays confirmed that FBXO7 interacted with EYA2, but not directly with co-transcriptional partner SIX1 (FIGS. 2C and 2D). EYA2's transactivation domain (AD, aa1-252) but not EYA domain (ED, aa253-538), which interacts with SIX proteins, was required for FBXO7 interaction (FIG. 2E). FBXO7's F-box motif was dispensable for EYA2 interaction (FIG. 2F).
SCFFBXW7 substrate recognition is generally triggered by GSK3β-mediated phosphorylation of the substrate CPD. Recombinant SCFFBXW7 bound a synthetic peptide corresponding to phosphorylated EYA2 CPD (FIG. 3I). […] To determine if EYA2 degradation was regulated by GSK3β, we first confirmed endogenous GSK3 β interacted with EYA2 in vivo by IP (data not shown). […] GSK3β stimulated SCFFBXW7-mediated polyubiquitylation of EYA2 in in vitro ubiquitylation reactions (FIG. 3J). […] Therefore, EYA2 is degraded by SCFFBXW7 in a GSK3β-dependent manner.

EYA2 = EYA2 steady-state level, stability and polyubiquitylation in cells; type: cell-based; conditions: data not shown
Excerpt: Input proteins are shown. […] FIG. 3C represents a putative EYA2 CPD motif across species and compared with other SCF^FBXW7 substrates. […] FIGS. 3F and 3G represent WT and Flag-EYA2-2A stability in MDA-MB-231 cells (FIG. 3F) and endogenous EYA2 in WT and Fbxw7 KO HCT116 cells (FIG. 3G). […] FIG. 3K represents flag-EYA2 stability in MDA-MB-231 cells treated with vehicle (DMSO) or GSK3βi. […] Input proteins shown. […] FIG. 3O represents a model of FBXO7 inhibition of GSK3β-SCFFBXW7-mediated degradation of EYA2.
FBXW7 expression enhanced EYA2 K48-linked but not K63-linked polyubiquitylation (FIG. 3D), indicating SCFFBXW7 regulated EYA2 degradation. IP confirmed EYA2's CPD was required for FBXW7 binding (FIG. 3E). In contrast, FBXO7-EYA2 binding was independent of EYA2's CPD (data not shown). […] In isogenic WT and Fbxw7 knockout (KO) cell lines, the steady-state level and stability of EYA2 increased and polyubiquitylation decreased in the absence of Fbxw7 (FIGS. 3G, 3H).
SCFFBXW7 substrate recognition is generally triggered by GSK3β-mediated phosphorylation of the substrate CPD. Recombinant SCFFBXW7 bound a synthetic peptide corresponding to phosphorylated EYA2 CPD (FIG. 3I). […] To determine if EYA2 degradation was regulated by GSK3β, we first confirmed endogenous GSK3 β interacted with EYA2 in vivo by IP (data not shown). […]

| SMILES | total and secreted GAS6 protein (GAS6 in MDA-MB-231 cells; data not shown) | GAS6 expression (GAS6 in MDA-MB-231 cells; mesenchymal MDA-MB-231 cells, FIG. 4I) | AXL signaling (AXL signaling) | effects on gene expression and cell morphology [1] | lung metastases ([2]; MDA-MB-231-luc) | tumor cell autonomous growth ([2]; orthotopic MDA-MB-231-luc breast tumors) | intertumoral infiltration of CD8+T and NK cells (4T1-luc breast tumors; flow cytometric and IHC analyses of 4T1-luc tumors) | H-2Kd MHC class I alloantigen surface expression on 4T1-luc tumor cells (4T1-luc breast tumors; flow cytometry, FIG. 6L) | 4T1-luc tumor growth / antitumor response (4T1-luc breast tumors; immunocompetent mice, FIGS. 6H and 6I) | sensitivity of cancer cells to doxorubicin treatment (cancer cells) | FBXO7-EYA2 binding (FBXO7-EYA2 binding) | EYA2 levels (EYA2) |
| --- | --- | --- | --- | --- | --- | --- | --- | --- | --- | --- | --- | --- |
| O=C(N/N=C/c1ccc(Sc2ccccn2)o1)c1cccc(F)c1 [EYA2i, MLS000544460] | decreased total and secreted GAS6 protein | decreased GAS6 expression | suppressed AXL signaling | induced similar effects on gene expression and cell morphology | diminished | diminished | stimulated | increased | modestly reduced | sensitized cancer cells to doxorubicin treatment | – | – |
| NS(=O)(=O)OC[C@@H]1C[C@@H](n2ccc3c(N[C@H]4CCc5ccccc54)ncnc32)C[C@@H]1O [MLN4924] | – | – | – | – | – | – | – | – | – | – | did not disrupt FBXO7-EYA2 binding | increased EYA2 levels |
